Experimental findings from article doi:10.1101/2023.12.04.569845, “Identification of 4-(6-((2-methoxyphenyl)amino)pyrazin-2-yl)benzoic acids as CSNK2A inhibitors with antiviral activity and improved selectivity over PIM3” (bioRxiv, 2023) are described below.

Targets include EPHA4 (Homo sapiens, UniProt P54764); EPHA7 (Homo sapiens, UniProt Q15375); SLK (Homo sapiens, UniProt Q9H2G2).
Holding throughout (experiment): biochemical
Holding throughout (set-up): Thermal shift (DSF, SYPRO Orange) Tm shift of recombinant kinase domains at 10 uM compound

The target in the next experiment is T1, Haspin (Homo sapiens, UniProt Q8TF76).
T1 sequence (Q8TF76 1-798): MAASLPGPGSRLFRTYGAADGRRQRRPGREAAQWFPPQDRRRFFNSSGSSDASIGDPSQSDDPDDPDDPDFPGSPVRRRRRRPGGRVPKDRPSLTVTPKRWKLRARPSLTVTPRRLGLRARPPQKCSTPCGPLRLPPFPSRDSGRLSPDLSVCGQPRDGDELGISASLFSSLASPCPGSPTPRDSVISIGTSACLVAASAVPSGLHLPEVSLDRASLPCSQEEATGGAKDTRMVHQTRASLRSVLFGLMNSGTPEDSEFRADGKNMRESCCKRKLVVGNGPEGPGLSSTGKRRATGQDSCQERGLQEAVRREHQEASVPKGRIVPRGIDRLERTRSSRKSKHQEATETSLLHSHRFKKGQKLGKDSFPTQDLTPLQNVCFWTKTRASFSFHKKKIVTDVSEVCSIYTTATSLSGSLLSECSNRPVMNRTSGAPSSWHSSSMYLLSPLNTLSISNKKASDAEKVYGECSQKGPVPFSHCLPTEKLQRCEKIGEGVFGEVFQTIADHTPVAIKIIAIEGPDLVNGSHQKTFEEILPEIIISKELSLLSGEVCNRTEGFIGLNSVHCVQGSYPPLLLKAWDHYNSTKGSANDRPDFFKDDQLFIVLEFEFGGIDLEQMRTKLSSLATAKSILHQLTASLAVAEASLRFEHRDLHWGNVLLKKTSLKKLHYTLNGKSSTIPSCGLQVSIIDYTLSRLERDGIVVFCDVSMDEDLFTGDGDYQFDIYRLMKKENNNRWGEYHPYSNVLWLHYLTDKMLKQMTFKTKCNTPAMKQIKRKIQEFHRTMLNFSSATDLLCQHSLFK

For the next experiment, the target named is T2, TTK (Homo sapiens, UniProt P33981).
T2 sequence (P33981 1-857): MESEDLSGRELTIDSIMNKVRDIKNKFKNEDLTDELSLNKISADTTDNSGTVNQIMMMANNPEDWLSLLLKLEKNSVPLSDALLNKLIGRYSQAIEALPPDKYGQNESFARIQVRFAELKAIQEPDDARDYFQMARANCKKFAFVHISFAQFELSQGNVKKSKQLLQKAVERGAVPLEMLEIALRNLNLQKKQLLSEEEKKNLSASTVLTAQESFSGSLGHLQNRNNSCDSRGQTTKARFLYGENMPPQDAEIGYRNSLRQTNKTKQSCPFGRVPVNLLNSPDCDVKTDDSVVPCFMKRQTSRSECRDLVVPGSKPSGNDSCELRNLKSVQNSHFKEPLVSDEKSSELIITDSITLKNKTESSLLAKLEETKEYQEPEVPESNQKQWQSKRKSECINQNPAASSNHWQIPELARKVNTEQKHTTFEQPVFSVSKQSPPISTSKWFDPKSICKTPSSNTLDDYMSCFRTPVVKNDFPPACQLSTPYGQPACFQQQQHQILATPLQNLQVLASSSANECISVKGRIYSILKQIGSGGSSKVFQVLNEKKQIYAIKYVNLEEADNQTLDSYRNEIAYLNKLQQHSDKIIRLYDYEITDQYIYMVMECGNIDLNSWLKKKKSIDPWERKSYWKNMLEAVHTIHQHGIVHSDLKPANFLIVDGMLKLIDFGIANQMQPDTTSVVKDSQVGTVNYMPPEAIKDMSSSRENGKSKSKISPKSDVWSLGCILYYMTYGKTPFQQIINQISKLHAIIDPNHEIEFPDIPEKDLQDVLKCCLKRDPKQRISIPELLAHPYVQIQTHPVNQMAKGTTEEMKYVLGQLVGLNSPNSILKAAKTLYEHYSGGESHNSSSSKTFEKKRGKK

A further experiment has as its target T3, VRK1 (Homo sapiens, UniProt Q99986).
T3 sequence (Q99986 1-396): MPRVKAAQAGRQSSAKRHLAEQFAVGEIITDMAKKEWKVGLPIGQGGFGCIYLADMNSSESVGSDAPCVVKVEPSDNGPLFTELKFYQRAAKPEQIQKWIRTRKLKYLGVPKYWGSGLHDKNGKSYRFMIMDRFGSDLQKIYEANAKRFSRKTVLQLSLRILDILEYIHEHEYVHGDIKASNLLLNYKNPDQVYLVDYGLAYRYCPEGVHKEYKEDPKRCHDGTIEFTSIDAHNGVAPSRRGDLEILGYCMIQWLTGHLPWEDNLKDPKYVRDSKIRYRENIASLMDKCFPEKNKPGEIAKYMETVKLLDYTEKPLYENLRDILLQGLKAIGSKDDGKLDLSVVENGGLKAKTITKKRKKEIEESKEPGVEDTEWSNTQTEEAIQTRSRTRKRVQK

Where two headings read alike, the source gives them in different places.

Chain of EPHA4 (P54764 whole entry): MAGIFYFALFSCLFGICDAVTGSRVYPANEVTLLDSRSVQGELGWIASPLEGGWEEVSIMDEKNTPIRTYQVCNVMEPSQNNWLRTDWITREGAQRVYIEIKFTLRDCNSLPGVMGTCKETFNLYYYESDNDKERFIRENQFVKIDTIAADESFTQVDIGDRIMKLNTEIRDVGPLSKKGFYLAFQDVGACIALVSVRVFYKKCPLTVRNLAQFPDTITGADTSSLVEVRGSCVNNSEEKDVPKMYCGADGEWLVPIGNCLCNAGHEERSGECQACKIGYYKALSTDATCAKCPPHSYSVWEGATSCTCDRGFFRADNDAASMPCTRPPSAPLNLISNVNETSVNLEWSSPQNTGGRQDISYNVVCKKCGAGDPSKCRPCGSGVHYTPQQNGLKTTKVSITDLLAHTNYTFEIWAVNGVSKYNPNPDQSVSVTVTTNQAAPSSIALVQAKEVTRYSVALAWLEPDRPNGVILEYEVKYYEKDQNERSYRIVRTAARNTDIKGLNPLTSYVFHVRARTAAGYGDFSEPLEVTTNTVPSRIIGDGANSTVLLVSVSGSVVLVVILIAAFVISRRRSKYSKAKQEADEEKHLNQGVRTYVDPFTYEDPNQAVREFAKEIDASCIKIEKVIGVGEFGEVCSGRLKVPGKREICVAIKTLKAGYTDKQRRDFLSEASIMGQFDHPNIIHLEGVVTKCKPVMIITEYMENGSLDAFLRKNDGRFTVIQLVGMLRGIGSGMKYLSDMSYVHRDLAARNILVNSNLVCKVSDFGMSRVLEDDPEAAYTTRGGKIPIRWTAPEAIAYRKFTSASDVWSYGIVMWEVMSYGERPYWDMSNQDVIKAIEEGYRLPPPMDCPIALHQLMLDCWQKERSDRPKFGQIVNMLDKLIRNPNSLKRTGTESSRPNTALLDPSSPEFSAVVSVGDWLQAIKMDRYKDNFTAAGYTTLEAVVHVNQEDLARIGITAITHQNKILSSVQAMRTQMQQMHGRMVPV
Chain of SLK (Q9H2G2 whole entry): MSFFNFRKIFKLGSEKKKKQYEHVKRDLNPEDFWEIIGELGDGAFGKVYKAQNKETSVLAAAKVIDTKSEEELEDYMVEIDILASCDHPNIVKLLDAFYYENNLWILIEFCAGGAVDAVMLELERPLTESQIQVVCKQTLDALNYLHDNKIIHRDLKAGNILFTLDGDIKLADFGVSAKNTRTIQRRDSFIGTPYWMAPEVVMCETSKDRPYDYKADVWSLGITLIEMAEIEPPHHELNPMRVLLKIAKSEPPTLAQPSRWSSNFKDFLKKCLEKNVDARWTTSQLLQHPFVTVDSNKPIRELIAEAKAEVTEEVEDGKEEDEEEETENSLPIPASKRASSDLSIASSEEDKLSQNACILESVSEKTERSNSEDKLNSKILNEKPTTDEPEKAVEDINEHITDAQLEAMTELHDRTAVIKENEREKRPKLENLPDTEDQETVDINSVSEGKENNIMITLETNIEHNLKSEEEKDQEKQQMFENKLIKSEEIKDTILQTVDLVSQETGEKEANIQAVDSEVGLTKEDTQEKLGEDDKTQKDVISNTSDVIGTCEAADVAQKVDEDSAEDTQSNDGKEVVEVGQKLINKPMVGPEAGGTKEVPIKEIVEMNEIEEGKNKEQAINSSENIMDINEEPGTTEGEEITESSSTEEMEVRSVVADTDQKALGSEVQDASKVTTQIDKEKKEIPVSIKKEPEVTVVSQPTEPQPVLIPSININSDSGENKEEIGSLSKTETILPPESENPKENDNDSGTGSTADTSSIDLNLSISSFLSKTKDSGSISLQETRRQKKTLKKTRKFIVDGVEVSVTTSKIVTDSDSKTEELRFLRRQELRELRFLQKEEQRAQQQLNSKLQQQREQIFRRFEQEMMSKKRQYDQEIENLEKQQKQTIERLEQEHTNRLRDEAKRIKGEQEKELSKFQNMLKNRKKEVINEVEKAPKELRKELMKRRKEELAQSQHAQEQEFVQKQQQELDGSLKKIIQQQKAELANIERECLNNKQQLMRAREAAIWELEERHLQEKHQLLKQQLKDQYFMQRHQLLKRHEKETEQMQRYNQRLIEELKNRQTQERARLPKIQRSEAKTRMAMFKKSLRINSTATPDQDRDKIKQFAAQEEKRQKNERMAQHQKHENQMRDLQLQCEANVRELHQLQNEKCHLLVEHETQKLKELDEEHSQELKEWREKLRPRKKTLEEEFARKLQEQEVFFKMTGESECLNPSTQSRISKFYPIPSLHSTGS
Chain of EPHA7 (Q15375 whole entry): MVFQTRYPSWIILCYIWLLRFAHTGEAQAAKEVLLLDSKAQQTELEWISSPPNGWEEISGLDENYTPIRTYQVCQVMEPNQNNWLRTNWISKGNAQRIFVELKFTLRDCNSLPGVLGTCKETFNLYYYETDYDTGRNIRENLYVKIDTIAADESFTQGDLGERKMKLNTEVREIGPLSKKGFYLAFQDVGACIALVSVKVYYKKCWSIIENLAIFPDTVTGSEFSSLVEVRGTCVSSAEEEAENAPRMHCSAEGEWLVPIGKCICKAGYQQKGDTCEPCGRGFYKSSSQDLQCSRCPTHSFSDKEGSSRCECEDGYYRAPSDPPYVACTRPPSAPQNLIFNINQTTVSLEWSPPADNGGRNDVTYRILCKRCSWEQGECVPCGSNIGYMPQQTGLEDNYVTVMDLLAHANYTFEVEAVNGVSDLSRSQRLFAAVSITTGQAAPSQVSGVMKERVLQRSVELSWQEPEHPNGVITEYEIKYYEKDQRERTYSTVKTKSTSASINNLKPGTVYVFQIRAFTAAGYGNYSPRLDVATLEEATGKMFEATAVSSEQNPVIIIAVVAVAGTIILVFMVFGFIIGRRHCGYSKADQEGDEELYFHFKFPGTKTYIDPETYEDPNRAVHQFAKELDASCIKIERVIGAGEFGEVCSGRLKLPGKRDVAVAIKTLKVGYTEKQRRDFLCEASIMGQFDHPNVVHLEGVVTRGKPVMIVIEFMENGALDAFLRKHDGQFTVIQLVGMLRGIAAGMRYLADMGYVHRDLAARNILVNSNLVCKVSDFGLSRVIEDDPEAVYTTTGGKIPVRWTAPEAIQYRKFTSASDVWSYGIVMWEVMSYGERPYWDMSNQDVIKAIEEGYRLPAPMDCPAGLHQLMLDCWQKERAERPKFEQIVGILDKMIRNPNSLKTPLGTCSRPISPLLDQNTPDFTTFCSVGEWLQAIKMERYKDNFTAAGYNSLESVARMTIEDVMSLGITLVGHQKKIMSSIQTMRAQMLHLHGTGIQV

Turning to `COc1ccc(OC(C)C)cc1Nc1cncc(-c2ccc(C(=O)O)cc2)n1` [7c], the ΔTm at 10 µM stood at 1 °C at EPHA4 (read-out: 7c); 0 °C on EPHA7 (read-out: 7c); 5 °C on Haspin (read-out: 7c); 1 °C on SLK (read-out: 7c); 0 °C on TTK (read-out: 7c); 0 °C on VRK1 (read-out: 7c).
With `CC(C)Oc1ccc2ccn(-c3cncc(-c4ccc(C(=O)O)cc4)n3)c2c1` [6c], the ΔTm at 10 µM on EPHA4 (read-out: 6c) was 2 °C; at EPHA7 (read-out: 6c), 1 °C; on Haspin (read-out: 6c), 0 °C; on SLK (read-out: 6c) it was 2 °C; on TTK (read-out: 6c), 1 °C; on VRK1 (read-out: 6c) it was 0 °C.
For the compound `CC(C)Nc1ccc2cnn(-c3cncc(-c4ccc(C(=O)O)cc4)n3)c2c1` [compound 2, 2], the ΔTm at 10 µM on EPHA4 (read-out: 2) was found to be 2 °C; on EPHA7 (read-out: 2), 2 °C; at Haspin (read-out: 2), 3 °C; at SLK (read-out: 2), 3 °C; at TTK (read-out: 2) it was 1 °C; on VRK1 (read-out: 2), 1 °C.
